Source: ChEMBL document CHEMBL2424546, “Synthesis, transformation and biological evaluation of 2,3-secotriterpene acetylhydrazones and their derivatives” (Eur J Med Chem, 2013)

tested on: RD; assay: Induction of apoptosis in human RD cells assessed as damaged cells at 10.9 uM after 6 hrs by annexinV-FITC/propidium iodide staining-based flow cytometry (reference value: 0.84%); assay type: cell-based; conditions: not given; call rule not given here

Row | Structure (SMILES) | Activity [%]
1 | C=C(C)[C@@H]1CC[C@]2(C(=O)OC)CC[C@]3(C)[C@H](CC[C@@H]4[C@@](C)(CC#N)[C@H](C(C)(C)[C@H]5OC(C)=NN5C(C)=O)CC[C@]43C)[C@@H]12 | 1.51

tested on: RD; assay: Induction of apoptosis in human RD cells assessed as early apoptotic cells at 10.9 uM after 6 hrs by annexinV-FITC/propidium iodide staining-based flow cytometry (reference value: 1.21%); assay type: cell-based; conditions: not given

Row | Structure (SMILES) | Activity [%]
2 | C=C(C)[C@@H]1CC[C@]2(C(=O)OC)CC[C@]3(C)[C@H](CC[C@@H]4[C@@](C)(CC#N)[C@H](C(C)(C)[C@H]5OC(C)=NN5C(C)=O)CC[C@]43C)[C@@H]12 | 3.83

tested on: not listed separately; assay: Therapeutic index, ratio of IC50 for pig PEK cells to EC50 for vesicular stomatitis virus Indiana infected in pig PEK cells; assay type: cell-based; conditions: read-out: Ratio IC50/EC50

Row | Structure (SMILES) | selectivity ratio
3 | C=C(C)[C@@H]1CC[C@]2(C(=O)OC)CC[C@]3(C)[C@H](CC[C@@H]4[C@@](C)(CC#N)[C@H](C(C)(C)/C=N/N(C(C)=O)C(C)=O)CC[C@]43C)[C@@H]12 | 2
4 | C=C(C)[C@@H]1CC[C@]2(C(=O)OC)CC[C@]3(C)[C@H](CC[C@@H]4[C@@](C)(CC#N)[C@H](C(C)(C)[C@@H]5OC(C)=NN5C(C)=O)CC[C@]43C)[C@@H]12 | 5
5 | CC(=O)N(/N=C/C(C)(C)[C@@H]1CC[C@]2(C)[C@H](CC[C@@H]3[C@H]4[C@H]5OC[C@@]4(CCC5(C)C)CC[C@]32C)[C@@]1(C)CC#N)C(C)=O | 8
6 | COC(=O)[C@@]1(C)CC[C@]2(C)CC[C@]3(C)C(=CC(=O)[C@@H]4[C@@](C)(CC#N)[C@H](C(C)(C)/C=N/NC(C)=O)CC[C@]43C)[C@@H]2C1 | 2
7 | C=C(C)[C@@H]1CC[C@]2(C(=O)O)CC[C@]3(C)[C@H](CC[C@@H]4[C@@]5(C)CC[C@H](O)C(C)(C)[C@@H]5CC[C@]43C)[C@@H]12 [BETULINIC ACID] | 0.07
8 | CC(=O)N/N=C/C(C)(C)[C@@H]1CC[C@]2(C)[C@H](CC[C@@H]3[C@H]4[C@H]5OC[C@@]4(CCC5(C)C)CC[C@]32C)[C@@]1(C)CC#N | 149
9 | C=C(C)[C@@H]1CC[C@]2(C(=O)OC)CC[C@]3(C)[C@H](CC[C@@H]4[C@@](C)(CC#N)[C@H](C(C)(C)[C@H]5OC(C)=NN5C(C)=O)CC[C@]43C)[C@@H]12 | 3

tested on: Vesicular stomatitis Indiana virus; assay: Antiviral activity against vesicular stomatitis virus Indiana infected in pig PEK cells assessed as inhibition of virus replication after 48 hrs by MTT assay; assay type: functional, organism-based; conditions: Vesicular stomatitis Indiana virus, PEK, 48 h; read-out: EC50

Row | Structure (SMILES) | EC50 [µM]
10 | C=C(C)[C@@H]1CC[C@]2(C(=O)OC)CC[C@]3(C)[C@H](CC[C@@H]4[C@@](C)(CC#N)[C@H](C(C)(C)[C@@H]5OC(C)=NN5C(C)=O)CC[C@]43C)[C@@H]12 | 0.34
11 | CC(=O)N(/N=C/C(C)(C)[C@@H]1CC[C@]2(C)[C@H](CC[C@@H]3[C@H]4[C@H]5OC[C@@]4(CCC5(C)C)CC[C@]32C)[C@@]1(C)CC#N)C(C)=O | 15.9
12 | COC(=O)[C@@]1(C)CC[C@]2(C)CC[C@]3(C)C(=CC(=O)[C@@H]4[C@@](C)(CC#N)[C@H](C(C)(C)/C=N/NC(C)=O)CC[C@]43C)[C@@H]2C1 | 18.4
13 | C=C(C)[C@@H]1CC[C@]2(C(=O)O)CC[C@]3(C)[C@H](CC[C@@H]4[C@@]5(C)CC[C@H](O)C(C)(C)[C@@H]5CC[C@]43C)[C@@H]12 [BETULINIC ACID] | 160
14 | CC(=O)N/N=C/C(C)(C)[C@@H]1CC[C@]2(C)[C@H](CC[C@@H]3[C@H]4[C@H]5OC[C@@]4(CCC5(C)C)CC[C@]32C)[C@@]1(C)CC#N | 0.41
15 | C=C(C)[C@@H]1CC[C@]2(C(=O)OC)CC[C@]3(C)[C@H](CC[C@@H]4[C@@](C)(CC#N)[C@H](C(C)(C)[C@H]5OC(C)=NN5C(C)=O)CC[C@]43C)[C@@H]12 | 0.62

same assay, conditions: pek

Row | Structure (SMILES) | EC50
16 | C=C(C)[C@@H]1CC[C@]2(C(=O)OC)CC[C@]3(C)[C@H](CC[C@@H]4[C@@](C)(CC#N)[C@H](C(C)(C)/C=N/N(C(C)=O)C(C)=O)CC[C@]43C)[C@@H]12 | Not Active

tested on: RD; assay: Induction of apoptosis in human RD cells assessed as late apoptotic/necrotic cells at 10.9 uM after 6 hrs by annexinV-FITC/propidium iodide staining-based flow cytometry (reference value: 1.20%); assay type: cell-based; conditions: not given

Row | Structure (SMILES) | Activity [%]
17 | C=C(C)[C@@H]1CC[C@]2(C(=O)OC)CC[C@]3(C)[C@H](CC[C@@H]4[C@@](C)(CC#N)[C@H](C(C)(C)[C@H]5OC(C)=NN5C(C)=O)CC[C@]43C)[C@@H]12 | 2.21

tested on: not listed separately; assay: Induction of apoptosis in human RD cells assessed as viable cells at 10.9 uM after 6 hrs by annexinV-FITC/propidium iodide staining-based flow cytometry (reference value: 96.85%); assay type: cell-based; conditions: read-out: Activity

Row | Structure (SMILES) | viability at 6 h, 10.9 µM [%]
18 | C=C(C)[C@@H]1CC[C@]2(C(=O)OC)CC[C@]3(C)[C@H](CC[C@@H]4[C@@](C)(CC#N)[C@H](C(C)(C)[C@H]5OC(C)=NN5C(C)=O)CC[C@]43C)[C@@H]12 | 92.5

tested on: not listed separately; assay: Cytotoxicity against human TE-32 cells after 72 hrs ny MTT assay; assay type: cell-based; conditions: RD

Row | Structure (SMILES) | IC50 [µM]
19 | C=C(C)[C@@H]1CC[C@]2(C(=O)OC)CC[C@]3(C)[C@H](CC[C@@H]4[C@@](C)(CC#N)[C@H](C(C)(C)[C@@H]5OC(C)=NN5C(C)=O)CC[C@]43C)[C@@H]12 | > 200
20 | C=C(C)[C@@H]1CC[C@]2(C(=O)O)CC[C@]3(C)[C@H](CC[C@@H]4[C@@]5(C)CC[C@H](O)C(C)(C)[C@@H]5CC[C@]43C)[C@@H]12 [BETULINIC ACID] | 23.9
21 | C=C(C)[C@@H]1CC[C@]2(C(=O)OC)CC[C@]3(C)[C@H](CC[C@@H]4[C@@](C)(CC#N)[C@H](C(C)(C)[C@H]5OC(C)=NN5C(C)=O)CC[C@]43C)[C@@H]12 | 10.9

tested on: RD; assay: Induction of apoptosis in human RD cells at 10.9 uM after 6 hrs by annexinV-FITC/propidium iodide staining-based flow cytometry relative to control; assay type: cell-based; conditions: not given

Row | Structure (SMILES) | fold change (FC)
22 | C=C(C)[C@@H]1CC[C@]2(C(=O)OC)CC[C@]3(C)[C@H](CC[C@@H]4[C@@](C)(CC#N)[C@H](C(C)(C)[C@H]5OC(C)=NN5C(C)=O)CC[C@]43C)[C@@H]12 | 3

tested on: not listed separately; assay: Cytotoxicity against human MS cells after 72 hrs ny MTT assay; assay type: cell-based; conditions: not given

Row | Structure (SMILES) | IC50 [µM]
23 | C=C(C)[C@@H]1CC[C@]2(C(=O)OC)CC[C@]3(C)[C@H](CC[C@@H]4[C@@](C)(CC#N)[C@H](C(C)(C)[C@@H]5OC(C)=NN5C(C)=O)CC[C@]43C)[C@@H]12 | 110
24 | C=C(C)[C@@H]1CC[C@]2(C(=O)O)CC[C@]3(C)[C@H](CC[C@@H]4[C@@]5(C)CC[C@H](O)C(C)(C)[C@@H]5CC[C@]43C)[C@@H]12 [BETULINIC ACID] | 16
25 | C=C(C)[C@@H]1CC[C@]2(C(=O)OC)CC[C@]3(C)[C@H](CC[C@@H]4[C@@](C)(CC#N)[C@H](C(C)(C)[C@H]5OC(C)=NN5C(C)=O)CC[C@]43C)[C@@H]12 | 5.84

tested on: A549; assay: Cytotoxicity against human A549 cells after 72 hrs ny MTT assay; assay type: cell-based; conditions: A549, 72 h

Row | Structure (SMILES) | IC50 [µM]
26 | C=C(C)[C@@H]1CC[C@]2(C(=O)OC)CC[C@]3(C)[C@H](CC[C@@H]4[C@@](C)(CC#N)[C@H](C(C)(C)[C@@H]5OC(C)=NN5C(C)=O)CC[C@]43C)[C@@H]12 | 133
27 | C=C(C)[C@@H]1CC[C@]2(C(=O)O)CC[C@]3(C)[C@H](CC[C@@H]4[C@@]5(C)CC[C@H](O)C(C)(C)[C@@H]5CC[C@]43C)[C@@H]12 [BETULINIC ACID] | 44
28 | C=C(C)[C@@H]1CC[C@]2(C(=O)OC)CC[C@]3(C)[C@H](CC[C@@H]4[C@@](C)(CC#N)[C@H](C(C)(C)[C@H]5OC(C)=NN5C(C)=O)CC[C@]43C)[C@@H]12 | 18.6

tested on: not listed separately; assay: Cytotoxicity against pig PEK cells after 48 hrs by MTT assay; assay type: cell-based, Sus scrofa; conditions: not given

Row | Structure (SMILES) | Activity
29 | C=C(C)[C@@H]1CC[C@]2(C(=O)OC)CC[C@]3(C)[C@H](CC[C@@H]4[C@@](C)(CC#N)[C@H](C(C)(C)[C@@H]5OC(C)=NN5C(C)=O)CC[C@]43C)[C@@H]12 | Toxic
30 | C=C(C)[C@@H]1CC[C@]2(C(=O)OC)CC[C@]3(C)[C@H](CC[C@@H]4[C@@](C)(CC#N)[C@H](C(C)(C)[C@H]5OC(C)=NN5C(C)=O)CC[C@]43C)[C@@H]12 | Toxic
